Test results reported in PMC9011347, “Small-Molecule Inhibitors Targeting Lipolysis in Human Adipocytes” (Journal of the American Chemical Society, 2022).

How the values were obtained:
[1] = Stability of NG-497 exposed to HepG2 cells; format: in vitro ADME; details: human, cells treated 1 h with 40 μM NG-497, inhibitor removed, DMEM 10% FCS, read-out: half-life (T1/2) when exposed to HepG2 cells
Experimental: Figure 2 Development and characterization of the human ATGL inhibitor NG-497. (a) Structure and IC50 values of human ATGL inhibitors. (b) Dose-dependent inhibition of human ATGL by respective inhibitors. (c) ATGL activity was determined at the indicated substrate concentrations in the absence and presence of NG-497 (0.5 μM). Ki was determined by nonlinear regression analysis using GraphPad Prism. Lineweaver–Burk analysis of ATGL inhibition is shown in the inset. (d) Toxicity of NG-497 in HepG2 cells was determined after 24 h incubation at indicated concentrations. Cisplatin and DMSO were used as positive and negative controls, respectively. Cytotoxicity was determined using the Roche LDH Kit and calculated as relative LDH release compared to fully lysed cells. (e) Stability of NG-497 was analyzed via ultrahigh-performance liquid chromatography–mass spectrometry (UHPLC-MS) after incubation in human serum for 0 or 3 h at 37 °C. Atglistatin and a chemically related unstable compound were used as controls. […] NG-497 concentrations/well were determined at the indicated time points using UHPLC-MS. […] Statistical significance was determined via t test (*p < 0.05; **p < 0.01; ***p < 0.001) or ANOVA followed by Bonferroni post hoc test (^###p < 0.001). […] The detected 297 lipid species of both groups were analyzed with supervised multivariate analysis OPLS-DA and are shown as a loading plot. […]

[2] = test system: primary human omental adipocytes; test: Lipolysis in human omental adipocytes; format: cell-based; details: NG-497 40 µM
Experimental: Fig. S5: Effect of NG-497 on lipolysis in human omental adipocytes. Omental preadipocytes were obtained from Zen-Bio and differentiated into adipocytes in 96-well trays according to the manufacturer's instructions (OP-F-SL, ZenBio). Cells were then labeled with [9,10-3H] oleic acid (1µCi/well) in full medium for 12 h, washed, and preincubated for 1 h with NG-497 (40 µM) or DMSO (carrier) as a control. Subsequently, the medium was replaced with DMEM containing 2% FA-free BSA and basal as well as Forskolin-stimulated release of radioactivity was monitored in the presence or absence of NG-497. After a 4 h incubation period, cells were lysed in NaOH/SDS (0.3 M/0.1%) and cell-associated radioactivity was determined by liquid scintillation.
Cell-associated radioactivity at time-point 0 (pulse) was calculated as sum of the radioactivity detected in medium and cells after the 4 h chase. The release of fatty acids is shown as % of cell-associated radioactivity.
In the presence of Forskolin, cells lost ~ 20% of the
(b) Time course of FA release during the 4 h chase period. NG-497 reduced basal lipolysis by ~50% and extinguished Forskolin-stimulated lipolysis. Data are presented as mean ± S.D (n = 4). Statistical significance was determined via ANOVA followed by Bonferroni post hoc test (***, p < 0.001).
(1 picture or pasted object on this page, not shown here)

Compound: CCOc1ccc(-c2cc(OC)cc(C(=O)OC(C)C)n2)cc1 [NG-497]
- half-life at 40 µM [1]: 46 min
- Forskolin-induced loss of cell-associated radiolabel (~ 20%) ([2]; 4 h): completely prevented
- Forskolin-induced TAG degradation and FA release (Forskolin-stimulated lipolysis) ([2]; 4 h chase): extinguished
- reduction of basal lipolysis ([2]; 4 h chase): ~ 50%
